{"source": "patent US20080076812A1", "about": "(priority 2006, published 2008)", "assay": "Drug-excipient compatibility study", "conditions": "binary drug/excipient mixture, 40° C./75% RH open bottle; sodium salt", "note": "Values joined by “and” are separate entries in the source; they are usually repeats but may differ in a detail not shown here. Equal values may be shown once.", "data": [{"compound": "Cc1cc2c(cc1CC(=O)c1sccc1S(=O)(=O)[N-]c1onc(C)c1Cl)OCO2.[Na+]", "note": "[Sitaxsentan Sodium, N-(4-chloro-3-methyl-5-isoxazolyl)-2-[2-methyl-4,5-(methylenedioxy)phenylacetyl]-thiophene-3-sulfonamide, sodium salt]", "values": [{"measurement": "Assay (%) T = 2 Weeks", "result": 98.0, "unit": "%"}, {"measurement": "Total Related Substanes (%) T = 2 Weeks", "result": "0.19% and 0.18%"}, {"measurement": "Total Related Substanes (%) T = 4 Weeks", "result": "0.24% and 0.12%"}]}]}
